Test results taken from ChEMBL document CHEMBL3431459, “Roche carnitine palmitoyltransferase modulator screening data (supplementary data associated with the publication CHEMBL2216752)”.
Values after ≈ are worked out from the molar mass of the structure shown.

Assays:
[1] = SUPPLEMENTARY: Lyophilisation Solubility Assay (LYSA); assay type: physicochemical; conditions: read-out: Kinetic_solubility
[2] = SUPPLEMENTARY: Lipophilicity (log D) Determination by high-throughput shake-flask; assay type: physicochemical; conditions: octanol/water
[3] = biological target: T1, Carnitine O-palmitoyltransferase 2, mitochondrial (Homo sapiens, UniProt P23786); assay: (§1) SUPPLEMENTARY: Inhibition of Carnitine palmitoyltransferase 2
T1 sequence (P23786 whole entry): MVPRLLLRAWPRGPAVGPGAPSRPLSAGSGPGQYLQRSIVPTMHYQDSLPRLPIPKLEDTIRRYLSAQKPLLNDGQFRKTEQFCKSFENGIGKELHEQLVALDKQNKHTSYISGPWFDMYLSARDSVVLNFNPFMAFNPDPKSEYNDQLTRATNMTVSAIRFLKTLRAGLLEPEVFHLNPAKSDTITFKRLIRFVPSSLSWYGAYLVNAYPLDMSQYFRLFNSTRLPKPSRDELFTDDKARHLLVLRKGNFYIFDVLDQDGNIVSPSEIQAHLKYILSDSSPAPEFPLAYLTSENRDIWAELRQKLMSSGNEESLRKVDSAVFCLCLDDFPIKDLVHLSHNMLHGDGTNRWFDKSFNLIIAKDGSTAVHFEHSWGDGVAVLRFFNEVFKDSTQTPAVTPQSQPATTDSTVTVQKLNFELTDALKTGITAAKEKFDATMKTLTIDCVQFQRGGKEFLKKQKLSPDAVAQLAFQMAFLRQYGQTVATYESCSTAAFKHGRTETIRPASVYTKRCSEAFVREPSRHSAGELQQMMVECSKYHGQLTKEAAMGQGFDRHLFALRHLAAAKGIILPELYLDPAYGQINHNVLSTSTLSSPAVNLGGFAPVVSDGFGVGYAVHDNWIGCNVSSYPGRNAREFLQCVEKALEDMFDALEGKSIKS

[4] = biological target: T2, Carnitine O-palmitoyltransferase 2, mitochondrial (Rattus norvegicus, UniProt P18886); assay: as §1
T2 sequence (P18886 whole entry): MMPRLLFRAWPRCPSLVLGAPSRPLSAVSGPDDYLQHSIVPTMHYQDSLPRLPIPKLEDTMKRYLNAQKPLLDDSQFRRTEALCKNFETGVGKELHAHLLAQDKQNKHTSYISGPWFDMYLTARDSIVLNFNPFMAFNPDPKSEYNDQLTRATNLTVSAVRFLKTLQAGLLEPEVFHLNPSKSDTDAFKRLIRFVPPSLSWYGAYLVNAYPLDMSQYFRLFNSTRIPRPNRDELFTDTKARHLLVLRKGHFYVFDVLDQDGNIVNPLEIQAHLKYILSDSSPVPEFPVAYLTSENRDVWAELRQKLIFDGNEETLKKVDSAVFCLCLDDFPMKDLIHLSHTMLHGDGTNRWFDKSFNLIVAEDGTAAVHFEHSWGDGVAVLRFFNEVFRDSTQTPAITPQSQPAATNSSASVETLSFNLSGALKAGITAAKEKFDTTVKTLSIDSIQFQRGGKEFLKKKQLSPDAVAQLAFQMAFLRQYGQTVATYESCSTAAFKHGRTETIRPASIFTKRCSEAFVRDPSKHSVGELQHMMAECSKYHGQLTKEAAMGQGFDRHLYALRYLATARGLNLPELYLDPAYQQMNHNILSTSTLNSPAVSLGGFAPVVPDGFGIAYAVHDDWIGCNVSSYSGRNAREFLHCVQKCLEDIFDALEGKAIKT

[5] = biological target: T3, Carnitine O-palmitoyltransferase 1, muscle isoform (Homo sapiens, UniProt Q92523); assay: SUPPLEMENTARY: Inhibition of Carnitine palmitoyltransferase 1, muscle isoform; parameters: species or system Muscle tissue
T3 sequence (Q92523 whole entry): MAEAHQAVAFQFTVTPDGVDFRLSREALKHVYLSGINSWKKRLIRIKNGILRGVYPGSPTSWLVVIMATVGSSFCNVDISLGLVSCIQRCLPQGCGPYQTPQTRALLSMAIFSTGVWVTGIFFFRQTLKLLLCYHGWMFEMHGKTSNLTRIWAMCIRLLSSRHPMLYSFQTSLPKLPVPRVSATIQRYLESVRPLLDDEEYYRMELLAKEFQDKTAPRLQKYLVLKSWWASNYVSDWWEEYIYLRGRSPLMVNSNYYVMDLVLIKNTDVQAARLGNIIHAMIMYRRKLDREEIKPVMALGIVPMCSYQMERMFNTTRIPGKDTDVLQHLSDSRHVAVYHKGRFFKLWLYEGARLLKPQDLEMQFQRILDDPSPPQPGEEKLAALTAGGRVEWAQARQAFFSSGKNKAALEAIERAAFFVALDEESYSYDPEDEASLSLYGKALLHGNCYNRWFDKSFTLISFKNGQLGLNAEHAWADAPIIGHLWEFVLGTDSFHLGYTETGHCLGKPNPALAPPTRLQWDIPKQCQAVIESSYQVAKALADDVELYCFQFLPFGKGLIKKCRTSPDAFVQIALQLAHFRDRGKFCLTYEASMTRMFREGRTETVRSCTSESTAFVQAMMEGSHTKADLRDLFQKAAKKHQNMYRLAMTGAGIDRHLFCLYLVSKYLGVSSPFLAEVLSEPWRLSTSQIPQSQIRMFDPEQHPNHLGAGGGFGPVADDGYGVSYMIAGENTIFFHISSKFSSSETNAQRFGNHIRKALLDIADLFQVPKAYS

[6] = SUPPLEMENTARY: PAMPA permeability assay; assay type: physicochemical; conditions: read-out: Permeability
[7] = biological target: T4, Carnitine O-palmitoyltransferase 1, liver isoform (Homo sapiens, UniProt P50416); assay: (§2) SUPPLEMENTARY: Inhibition of Carnitine palmitoyltransferase 1, liver isoform
T4 sequence (P50416 whole entry): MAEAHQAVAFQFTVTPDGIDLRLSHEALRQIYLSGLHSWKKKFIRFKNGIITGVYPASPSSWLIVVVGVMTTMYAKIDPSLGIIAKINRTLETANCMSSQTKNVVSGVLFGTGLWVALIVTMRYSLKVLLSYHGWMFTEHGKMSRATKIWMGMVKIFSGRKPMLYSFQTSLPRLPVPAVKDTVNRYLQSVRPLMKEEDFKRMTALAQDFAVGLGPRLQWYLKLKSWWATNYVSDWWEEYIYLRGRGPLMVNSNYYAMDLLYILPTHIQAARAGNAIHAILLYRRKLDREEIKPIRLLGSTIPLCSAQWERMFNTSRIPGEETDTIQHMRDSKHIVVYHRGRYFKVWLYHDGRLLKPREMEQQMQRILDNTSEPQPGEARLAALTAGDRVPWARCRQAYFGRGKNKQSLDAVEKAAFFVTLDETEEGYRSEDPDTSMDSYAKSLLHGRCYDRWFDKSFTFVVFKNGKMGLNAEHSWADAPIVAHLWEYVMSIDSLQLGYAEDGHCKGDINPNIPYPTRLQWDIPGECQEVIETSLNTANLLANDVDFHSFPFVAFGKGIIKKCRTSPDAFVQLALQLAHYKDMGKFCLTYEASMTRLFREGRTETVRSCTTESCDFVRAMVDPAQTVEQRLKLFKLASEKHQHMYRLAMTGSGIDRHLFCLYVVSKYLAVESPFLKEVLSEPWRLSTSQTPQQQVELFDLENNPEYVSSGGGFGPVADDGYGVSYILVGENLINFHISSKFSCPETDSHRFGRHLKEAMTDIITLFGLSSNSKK

[8] = biological target: T5, Carnitine O-palmitoyltransferase 1, liver isoform (Rattus norvegicus, UniProt P32198); assay: as §2
T5 sequence (P32198 whole entry): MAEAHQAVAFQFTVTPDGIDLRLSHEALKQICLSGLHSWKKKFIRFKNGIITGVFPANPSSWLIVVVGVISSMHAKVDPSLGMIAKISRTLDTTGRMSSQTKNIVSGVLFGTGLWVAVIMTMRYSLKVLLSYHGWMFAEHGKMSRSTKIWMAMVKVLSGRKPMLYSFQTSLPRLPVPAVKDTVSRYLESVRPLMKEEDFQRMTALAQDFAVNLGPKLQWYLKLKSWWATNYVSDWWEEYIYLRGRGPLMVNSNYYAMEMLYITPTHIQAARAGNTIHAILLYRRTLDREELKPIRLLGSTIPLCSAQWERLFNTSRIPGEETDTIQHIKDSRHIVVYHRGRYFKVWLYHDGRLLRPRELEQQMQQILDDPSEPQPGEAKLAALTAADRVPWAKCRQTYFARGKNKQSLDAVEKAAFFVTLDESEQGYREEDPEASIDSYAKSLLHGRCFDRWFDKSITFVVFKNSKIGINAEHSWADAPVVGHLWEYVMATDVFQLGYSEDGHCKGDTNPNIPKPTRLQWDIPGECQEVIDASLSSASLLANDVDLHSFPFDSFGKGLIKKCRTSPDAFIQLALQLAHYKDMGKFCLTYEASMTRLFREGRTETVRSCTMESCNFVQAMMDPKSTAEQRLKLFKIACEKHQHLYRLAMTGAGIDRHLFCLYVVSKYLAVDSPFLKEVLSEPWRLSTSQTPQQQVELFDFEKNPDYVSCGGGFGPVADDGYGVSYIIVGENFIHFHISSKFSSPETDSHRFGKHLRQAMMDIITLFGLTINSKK

Row | SMILES | solubility kinetic [1] [µg/mL] | logD [2] | IC50 [3] [nM] | IC50 [4] [nM] | IC50 [5] [nM] | Papp [6] [×10⁻⁶ cm/s] | IC50 [7] [nM] | IC50 [8] [nM]
1 | COc1ccc(Cl)cc1S(=O)(=O)N1CCOc2c(Cl)cc(C(=O)Nc3ncc(CC(=O)O)s3)cc21 | 5 (≈ 8.95 µM) | 2.27 | > 100000 | > 100000 | 685 | 3.12 | 68.8 | 37.2
2 | COC(=O)[C@H]1CCCC[C@@H]1c1nc([C@H]2CCCCN2C(=O)COc2ccccc2)no1 | 11 (≈ 25.7 µM) | 2.9 | 57300 | 85500 | > 100000 | 2.24 | 148 | 479
3 | O=C1Cc2ccc(-c3noc([C@H]4CCCCN4C(=O)COc4ccccc4)n3)cc2N1 | 13 (≈ 31.1 µM) | 2.63 | > 100000 | > 100000 | > 100000 | 1.46 | 95.9 | 102
4 | O=C(COc1ccccc1)N1CCCC[C@@H]1c1nc(-c2ccc3[nH]cnc3c2)no1 | 9.55 (≈ 23.7 µM) | 3.08 | 19100 | 19200 | > 100000 | 2.8 | 26.1 | 106
5 | O=C(Nc1ccc(C(=O)O)c(Cl)c1)c1ccc2c(c1)N(S(=O)(=O)c1cc(Cl)cc(Cl)c1)CC2 | 16 (≈ 30.4 µM) | 2.67 | 2460 | 3350 | 3830 | 1.89 | 90.2 | 65.1
6 | CN1CCN(C(=O)COc2ccccc2)[C@@H](c2nc(-c3ccc4c(c3)CC(=O)N4)no2)C1 | 73 (≈ 168 µM) | 1.91 | 16500 | 35000 | > 100000 | 3.38 | 137 | 305
7 | COc1ccc(Cl)cc1S(=O)(=O)N1CC(C)c2ccc(C(=O)Nc3ccc(C(=O)O)c(F)c3)cc21 (configuration not stated) | 493 (≈ 950 µM) | 0.6 | 584 | 3880 | 1180 | 1.99 | 92.2 | 46.7
8 | O=C(Nc1ccc(-c2nnn[nH]2)cc1)c1nn(Cc2ccc(OC(F)F)cc2)c2ccc(F)cc12 | 1 (≈ 2.09 µM) | > 3 | > 100000 | > 100000 | 26800 | 0.46 | 210 | 2870
9 | Cn1ccc(-c2nc([C@H]3CCCCN3C(=O)COc3ccccc3)no2)n1 | 94 (≈ 256 µM) | 2.16 | > 100000 | > 100000 | > 100000 | 9.41 | 156 | 555
10 | COc1cccc2c1CCN(C(=O)[C@H]1CCCCN1C(=O)COc1ccccc1)C2 | 23 (≈ 56.3 µM) | 3.13 | 983 | 2190 | > 100000 | 5.46 | 219 | 473
11 | COc1ccc(Cl)cc1S(=O)(=O)N1CC(C(=O)O)Oc2ccc(C(=O)Nc3ccc(F)cc3)cc21 (configuration not stated) | 347 (≈ 666 µM) | -0.22 | > 100000 | > 100000 | 99900 | 0.06 | 80.9 | 131
12 | COc1ccc(C)cc1S(=O)(=O)N1CCc2ccc(C(=O)Nc3ccc(CC(=O)O)cc3)cc21 | 93 (≈ 194 µM) | 0.11 | > 100000 | > 100000 | 2210 | 2.21 | 237 | 174
13 | CCOC(=O)C1CN(S(=O)(=O)c2cc(Cl)ccc2OC)c2cc(C(=O)Nc3cccc(F)c3)ccc2O1 (configuration not stated) | < 1 | 3.58 | > 100000 | > 100000 | > 100000 | 1.31 | 221 | 339
14 | Cc1cc(C)cc(S(=O)(=O)c2nn(CCC(=O)O)c3ccc(C(=O)Nc4ccccc4)cc23)c1 | 8 (≈ 16.8 µM) | 1.94 | > 100000 | > 100000 | > 100000 | 0.91 | 27 | 22.2
